According to patent US9119396B2, “Method for promoting plant growth” (SUMITOMO CHEMICAL COMPANY, LIMITED, priority 2011, dated 2015):

Columns and labels:
Format in all cases: in vivo
[1] = tested on: Rice (cultivar: Nipponbare); assay: Test Example 6: reduction of drought stress by immersion treatment of rice; conditions: hydroponic solution 10 ppm for 14 days, drought stress 2 days, then 14 days cultivation
Description: Evaluation Test for Reduction of Drought Stress by Immersion Treatment of Rice Rice (cultivar: Nipponbare) A necessary amount of rice seeds was immersed in an aqueous solution of 1,000 ppm of Benlate, and incubated at 30° C. overnight under dark conditions. The aqueous solution of Benlate was replaced with distilled water, and the seeds were further incubated at 30° C. overnight under dark conditions. A filter paper was placed on the holes of a plug tray having 406 holes, and the rice seeds treated as above were sown on the filter paper. To the rice seeds were added a kimura B solution for hydroponics (see Plant Science 119: 39-47 (1996)) at ½ concentration and a 1/10,000 volume of a DMSO solution containing the present compound 1 at 100,000 ppm, and cultivated for 14 days under the conditions of a temperature of 28° C. in daytime/23° C. in night, a humidity of 60%, an illuminance of 8500 lux, and a day length of 12 hours. […] Fourteen (14) days after the treatment, the fresh weight of the overground parts of five test plants in each treated group was measured. The experiment was performed in three replications in each treated group and the average value was calculated. […]

[2] = tested on: Rice (cultivar: Nipponbare); assay: Test Example 4: reduction of low-temperature stress by immersion treatment of rice; conditions: rice seedlings, immersion at 1 ppm for 2 days; low-temperature stress 4° C. 5 days, then 4 days at 25° C.
Description: Evaluation Test for Reduction of Low-Temperature Stress by Immersion Treatment of Rice Rice (cultivar: Nipponbare) A necessary amount of rice seeds was immersed in an aqueous solution of 1,000 ppm of Benlate, and incubated at 30° C. overnight under dark conditions. The aqueous solution of Benlate was replaced with distilled water, and the seeds were further incubated at 30° C. overnight under dark conditions to stimulate the germination of the seeds. A filter paper was placed on the holes of a plug tray having 406 holes, and the rice seeds obtained after the stimulation of germination were sown on the filter paper. To the rice seeds was added a kimura B solution for hydroponics (see Plant Science 119: 39-47 (1996)) at ½ concentration, and cultivated for 5 days in an artificial weather control room under the following conditions: • temperature: 28° C. in daytime/23° C. in night, humidity: 70%, illuminance: 8,500 lux, and day length: 12 hours. <Compound Treatment> A DMSO solution of 1,000 ppm of the present compound 1 was prepared, and diluted with a kimura B solution for hydroponics at ½ concentration. The solution for hydroponics containing the compound was dispensed into the wells of a 24-well plate at 2 ml per well. […] In the treated group, the experiment was performed in duplication and the average value of the green area per individual was calculated. […]

[3] = tested on: Rice (cultivar: Nipponbare); assay: Test Example 1: promotion of root growth in hydroponics of rice; conditions: 1 ppm, 3 days germination + 3 days cultivation, average of 4 or 5 individuals
Description: Evaluation Test for Promotion of Root Growth in Hydroponics of Rice Rice (cultivar: Nipponbare) A 1/10,000 volume of each DMSO solution containing each of the present compounds 1 to 4 at 10,000 ppm was added to a Hoagland solution for hydroponics (Hoagland and Amon, California Agricultural Experiment Station 1950 Circular 347 pp. 34) at ¼ concentration to obtain a solution for hydroponics containing each of the present compounds 1 to 4 at 1 ppm. These solutions were used in the treated-group. In a non-treated group, a solution for hydroponics obtained by adding a Hoagland solution for hydroponics at ¼ concentration to a 1/10,000 volume of DMSO was used. The rice seeds were immersed in an aqueous solution of 1% sodium hypochlorite for 10 minutes, followed by 70% ethanol solution to sterilize their surfaces. After that, the seeds were washed with distilled water. The sterilized seeds were immersed in each solution for hydroponics containing the test compound at 1 ppm, and incubated at a temperature of 28° C. for 3 days under dark conditions to stimulate the germination of the seeds. Then, 30 ml of each solution for hydroponics containing the test compound at 1 ppm was dispensed into a plastic tube (20 mm in diameter×113 mm in height) covered with a cardboard on the lateral surface for blocking a light. A float made of a styrene board and a vinyl mesh was placed on the water surface of each solution for hydroponics, and the rice seeds obtained after the stimulation of germination were placed on the float. The seeds were cultivated for 3 days under the conditions of an illuminance of 4,000 lux at the top of the tube, a temperature of 26° C., a humidity of 50%, and a day length of 16 hours. The root length of the rice seedlings obtained after the cultivation was measured by using WinRHIZO system (manufactured by REGENT INSTRUMENTS). The average value of the root length in the treated group was calculated from the measurement values of 4 or 5 individuals. As a result, the root length in the treated group, wherein the plants were treated with the present compound 1, 2, 3 or 4 (at a concentration of 1 ppm in each case), was much longer than that in the non-treated group.

## COC(=O)c1cc2cc(C(F)(F)F)ccc2s1 [compound 1]
[1]
  fresh weight of the overground part of plants vs non-treated group: much heavier
[2]
  green area of the overground part of the plant vs non-treated group: much larger
[3]
  root length of the rice seedlings vs non-treated group: much longer
